In assay [1] the target is T1, serotoninergic 5-HT1A receptor (Homo sapiens, UniProt P08908).
T1 sequence (P08908 1-422): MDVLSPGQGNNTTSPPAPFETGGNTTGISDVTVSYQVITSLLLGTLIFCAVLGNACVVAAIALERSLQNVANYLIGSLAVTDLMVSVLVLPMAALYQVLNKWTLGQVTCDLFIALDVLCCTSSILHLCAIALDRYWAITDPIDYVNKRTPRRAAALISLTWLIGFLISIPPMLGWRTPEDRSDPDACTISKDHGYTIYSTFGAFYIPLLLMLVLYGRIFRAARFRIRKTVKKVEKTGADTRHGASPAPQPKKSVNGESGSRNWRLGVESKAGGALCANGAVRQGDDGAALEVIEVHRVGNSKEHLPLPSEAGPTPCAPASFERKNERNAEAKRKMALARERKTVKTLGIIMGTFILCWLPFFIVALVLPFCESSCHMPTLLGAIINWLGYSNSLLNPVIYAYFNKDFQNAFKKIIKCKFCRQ
Put plainly: Binding assay 5-HT1A (h), [3H]8-OH-DPAT, HEK-293 cells. Further details: expressed in transfected cells; host or cells: HEK-293 cells. Particulars: read-out: 5-HT1A. Put shortly: (§1)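 Scintillation counting detects receptor-bound radioligand. Compound tested at 1×10^−6 M.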

The target in assay [2] is dopaminergic D3 receptor (Homo sapiens, UniProt P35462). Put plainly: Binding assay D3 (h), [3H]methyl-spiperone, CHO cells. Further details: expressed in transfected cells; host or cells: CHO cells. Particulars: read-out: D3 [%]. Put shortly: as §1
The target in assay [3] is T2, serotoninergic 5-HT7 receptor (Homo sapiens, UniProt P34969). Put plainly: Binding assay 5-HT7 (h), [3H]LSD, CHO cells. Further details: expressed in transfected cells; host or cells: CHO cells. Particulars: read-out: 5-HT7. In outline:
as §1

In assay [4] the target is T3, serotonine transporter (SERT) receptor (Homo sapiens, UniProt P31645).
T3 construct: expressed in transfected cells; host or cells: CHO cells
Put plainly: Binding assay SERT (h), [3H]imipramine, CHO cells. Particulars: read-out: SERT [%]. In outline: as §1

The subject of assay [5] is adrenergic α1 receptor. Briefly: Binding assay α1 (non-selective), [3H]prazosin, rat cerebral cortex. Particulars: percent inhibition of control specific binding; compounds tested at 1×10^−6 M. In outline:
as §1

The target of assay [6] is T4, serotoninergic 5-HT6 receptor (Homo sapiens, UniProt P50406). Put plainly: Binding assay 5-HT6 (h), [3H]LSD, CHO cells. Also on record: expressed in transfected cells; host or cells: CHO cells. Particulars: read-out: 5-HT6. Put shortly:
as §1

In assay [7] the target is serotoninergic 5-HT2A receptor (Homo sapiens, UniProt P28223). Briefly: Binding assay 5-HT2A (h), [3H]ketanserin, HEK-293 cells. Also on record: expressed in transfected cells; host or cells: HEK-293 cells. The note with it: read-out: 5-HT2A. Put shortly:
as §1

Assay [8] deals with T5, muscarinic M3 receptor (Homo sapiens, UniProt P20309).
T5 construct: expressed in transfected cells; host or cells: CHO cells
Briefly: Binding assay M3 (h), [3H]4-DAMP, CHO cells. The note with it: read-out: M3 [%]. In outline: as §1

The subject of assay [9] is sigma σ receptor. Briefly: Binding assay σ (non-selective), [3H]DTG, rat cerebral cortex. The note with it: percent inhibition of control specific binding; compounds tested at 1×10^−6 M. Put shortly: as §1
Assay [10] concerns the target dopaminergic D2 receptor (Homo sapiens, UniProt P14416). Put plainly: Binding assay D2S (h), [3H]methyl-spiperone, HEK-293 cells. Further details: expressed in transfected cells; host or cells: HEK-293 cells. Particulars: read-out: D2 [%]. Put shortly:
as §1

Assay [11] concerns the target T4, serotoninergic 5-HT6 receptor. Put plainly: Cellular functional assay, serotoninergic 5-HT6 receptor (agonism/antagonism). It counts as cell-based. On the procedure: (§2) The compounds were tested at the concentration of 1×10^−6M.
(§3) In the Tables ag refers to agonism, and antag to antagonism).

In assay [12] the target is T6, adrenergic α2C receptor (Homo sapiens, UniProt P18825).
T6 sequence (P18825 1-462): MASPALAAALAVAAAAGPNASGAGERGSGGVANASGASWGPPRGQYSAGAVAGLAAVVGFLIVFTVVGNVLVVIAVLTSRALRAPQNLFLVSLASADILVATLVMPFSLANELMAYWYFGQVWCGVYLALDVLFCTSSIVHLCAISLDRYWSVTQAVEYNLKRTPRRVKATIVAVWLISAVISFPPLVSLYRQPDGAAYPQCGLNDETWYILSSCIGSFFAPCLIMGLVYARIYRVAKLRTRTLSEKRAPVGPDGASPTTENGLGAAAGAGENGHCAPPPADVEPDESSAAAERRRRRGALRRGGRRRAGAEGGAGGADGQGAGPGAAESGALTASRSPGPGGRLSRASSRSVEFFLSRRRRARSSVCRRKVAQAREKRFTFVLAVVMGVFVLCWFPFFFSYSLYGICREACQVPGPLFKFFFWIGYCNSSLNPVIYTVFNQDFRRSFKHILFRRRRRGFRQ
Briefly: Binding assay α2C (h), [3H]RX 821002, CHO cells. The note with it: read-out: α2C [%]. Further details: expressed in transfected cells; host or cells: CHO cells. Put shortly:
as §1

Assay [13] addresses histaminergic H1 receptor (Homo sapiens, UniProt P35367). Briefly: Binding assay H1 (h), [3H]pyrilamine, HEK-293 cells. Further details: expressed in transfected cells; host or cells: HEK-293 cells. The note with it: read-out: H1 [%]. In outline:
as §1

The target in assay [14] is T2, serotoninergic 5-HT7 receptor. Put plainly: Cellular functional assay, serotoninergic 5-HT7 receptor (agonism/antagonism). The class given is cell-based. On the procedure: as §2, §3
Assay [15] addresses T7, serotoninergic receptor 5-HT2C (Homo sapiens, UniProt P28335).
T7 construct: expressed in transfected cells; host or cells: HEK-293 cells
T7 sequence (P28335 33-458): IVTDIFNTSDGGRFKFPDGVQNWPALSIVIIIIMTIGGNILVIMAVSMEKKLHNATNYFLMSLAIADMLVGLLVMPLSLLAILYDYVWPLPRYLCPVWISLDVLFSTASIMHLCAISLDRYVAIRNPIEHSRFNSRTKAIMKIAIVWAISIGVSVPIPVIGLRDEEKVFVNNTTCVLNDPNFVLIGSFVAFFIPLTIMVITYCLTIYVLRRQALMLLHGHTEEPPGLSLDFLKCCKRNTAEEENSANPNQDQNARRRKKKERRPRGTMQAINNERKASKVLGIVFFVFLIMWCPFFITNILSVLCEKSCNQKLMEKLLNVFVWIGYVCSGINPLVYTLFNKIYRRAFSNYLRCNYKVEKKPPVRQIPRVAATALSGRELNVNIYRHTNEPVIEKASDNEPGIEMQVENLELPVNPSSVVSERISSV
Briefly: Binding assay 5-HT2C (h), [3H]mesulergine, HEK-293 cells. Particulars: read-out: 5-HT2C [%]. Put shortly:
as §1

Chain of dopaminergic D2 receptor (P14416 1-414 isoform P14416-2): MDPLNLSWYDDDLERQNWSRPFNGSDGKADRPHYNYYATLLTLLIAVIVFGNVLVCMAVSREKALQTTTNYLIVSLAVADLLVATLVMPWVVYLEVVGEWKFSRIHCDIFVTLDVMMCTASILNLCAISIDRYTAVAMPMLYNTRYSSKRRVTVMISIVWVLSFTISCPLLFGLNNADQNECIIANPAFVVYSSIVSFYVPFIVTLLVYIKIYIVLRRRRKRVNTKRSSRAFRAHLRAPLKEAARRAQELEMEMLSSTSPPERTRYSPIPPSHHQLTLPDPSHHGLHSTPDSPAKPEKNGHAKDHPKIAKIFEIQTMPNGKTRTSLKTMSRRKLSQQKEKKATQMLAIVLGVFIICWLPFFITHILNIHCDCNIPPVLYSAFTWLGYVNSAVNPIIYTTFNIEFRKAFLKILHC
Chain of histaminergic H1 receptor (P35367 whole entry): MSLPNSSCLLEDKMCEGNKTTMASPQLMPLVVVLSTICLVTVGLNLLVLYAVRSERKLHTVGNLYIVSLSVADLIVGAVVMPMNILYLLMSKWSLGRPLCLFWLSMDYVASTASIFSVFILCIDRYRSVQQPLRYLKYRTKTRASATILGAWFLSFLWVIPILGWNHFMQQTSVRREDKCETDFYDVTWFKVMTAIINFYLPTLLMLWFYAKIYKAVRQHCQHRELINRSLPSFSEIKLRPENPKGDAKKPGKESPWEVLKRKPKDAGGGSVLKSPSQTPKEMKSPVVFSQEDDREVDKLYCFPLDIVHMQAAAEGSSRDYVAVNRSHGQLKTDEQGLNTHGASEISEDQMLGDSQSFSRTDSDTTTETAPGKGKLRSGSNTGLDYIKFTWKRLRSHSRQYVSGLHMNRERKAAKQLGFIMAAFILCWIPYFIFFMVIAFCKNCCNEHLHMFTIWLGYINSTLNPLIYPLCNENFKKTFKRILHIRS
Chain of dopaminergic D3 receptor (P35462 whole entry): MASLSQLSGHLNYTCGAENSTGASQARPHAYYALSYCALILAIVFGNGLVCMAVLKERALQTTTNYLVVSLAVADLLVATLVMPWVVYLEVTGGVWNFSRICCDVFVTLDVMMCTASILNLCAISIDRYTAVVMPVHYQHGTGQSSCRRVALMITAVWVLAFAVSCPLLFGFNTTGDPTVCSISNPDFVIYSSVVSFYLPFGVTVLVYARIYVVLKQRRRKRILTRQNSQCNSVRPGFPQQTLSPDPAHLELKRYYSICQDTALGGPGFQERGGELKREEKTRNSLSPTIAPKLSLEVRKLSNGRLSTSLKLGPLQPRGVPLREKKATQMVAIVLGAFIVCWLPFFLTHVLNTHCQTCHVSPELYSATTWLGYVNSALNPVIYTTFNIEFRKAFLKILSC
T5 sequence (P20309 whole entry): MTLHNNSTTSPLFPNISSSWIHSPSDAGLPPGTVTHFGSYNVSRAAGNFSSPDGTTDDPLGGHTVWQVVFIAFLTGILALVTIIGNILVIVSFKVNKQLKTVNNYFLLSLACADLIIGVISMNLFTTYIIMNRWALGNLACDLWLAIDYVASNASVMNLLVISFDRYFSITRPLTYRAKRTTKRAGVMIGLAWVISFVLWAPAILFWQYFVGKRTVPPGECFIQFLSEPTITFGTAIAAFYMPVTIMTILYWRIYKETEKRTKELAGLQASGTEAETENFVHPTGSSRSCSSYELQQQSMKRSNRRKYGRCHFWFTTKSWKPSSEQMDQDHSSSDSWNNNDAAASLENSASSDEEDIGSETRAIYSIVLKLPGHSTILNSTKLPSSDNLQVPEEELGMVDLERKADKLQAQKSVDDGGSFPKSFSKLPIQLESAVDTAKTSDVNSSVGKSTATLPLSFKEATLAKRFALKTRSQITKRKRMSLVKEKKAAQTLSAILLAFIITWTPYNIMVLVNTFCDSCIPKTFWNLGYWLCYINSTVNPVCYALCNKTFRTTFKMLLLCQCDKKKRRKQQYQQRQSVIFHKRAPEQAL
T3 sequence (P31645 whole entry): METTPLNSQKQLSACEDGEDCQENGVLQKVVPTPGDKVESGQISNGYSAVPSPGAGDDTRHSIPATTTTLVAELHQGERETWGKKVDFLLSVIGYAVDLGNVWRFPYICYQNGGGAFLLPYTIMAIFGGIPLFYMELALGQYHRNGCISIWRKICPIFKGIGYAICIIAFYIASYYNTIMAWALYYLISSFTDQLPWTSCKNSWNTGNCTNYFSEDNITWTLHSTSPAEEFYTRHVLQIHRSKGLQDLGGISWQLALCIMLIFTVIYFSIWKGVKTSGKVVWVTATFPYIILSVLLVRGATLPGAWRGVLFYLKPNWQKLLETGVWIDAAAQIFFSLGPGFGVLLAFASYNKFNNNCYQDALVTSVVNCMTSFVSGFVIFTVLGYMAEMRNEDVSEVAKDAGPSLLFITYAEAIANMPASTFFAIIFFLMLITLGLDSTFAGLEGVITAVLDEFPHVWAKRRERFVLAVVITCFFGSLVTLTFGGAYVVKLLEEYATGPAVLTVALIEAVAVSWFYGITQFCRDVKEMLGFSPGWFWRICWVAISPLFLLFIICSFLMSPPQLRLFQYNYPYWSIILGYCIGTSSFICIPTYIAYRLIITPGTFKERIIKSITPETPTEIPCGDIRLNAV
T2 sequence (P34969 whole entry): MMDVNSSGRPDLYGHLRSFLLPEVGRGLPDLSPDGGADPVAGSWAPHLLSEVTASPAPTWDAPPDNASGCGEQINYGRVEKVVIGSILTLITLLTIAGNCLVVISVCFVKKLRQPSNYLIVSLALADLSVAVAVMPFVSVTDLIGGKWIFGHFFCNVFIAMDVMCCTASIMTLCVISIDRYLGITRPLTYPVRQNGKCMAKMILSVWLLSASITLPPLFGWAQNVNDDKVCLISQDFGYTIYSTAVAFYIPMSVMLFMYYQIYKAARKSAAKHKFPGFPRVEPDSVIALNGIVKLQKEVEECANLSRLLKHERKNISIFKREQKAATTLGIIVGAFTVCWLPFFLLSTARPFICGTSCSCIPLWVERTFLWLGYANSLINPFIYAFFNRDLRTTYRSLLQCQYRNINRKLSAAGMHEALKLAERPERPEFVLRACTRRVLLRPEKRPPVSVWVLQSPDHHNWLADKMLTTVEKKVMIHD
T4 sequence (P50406 whole entry): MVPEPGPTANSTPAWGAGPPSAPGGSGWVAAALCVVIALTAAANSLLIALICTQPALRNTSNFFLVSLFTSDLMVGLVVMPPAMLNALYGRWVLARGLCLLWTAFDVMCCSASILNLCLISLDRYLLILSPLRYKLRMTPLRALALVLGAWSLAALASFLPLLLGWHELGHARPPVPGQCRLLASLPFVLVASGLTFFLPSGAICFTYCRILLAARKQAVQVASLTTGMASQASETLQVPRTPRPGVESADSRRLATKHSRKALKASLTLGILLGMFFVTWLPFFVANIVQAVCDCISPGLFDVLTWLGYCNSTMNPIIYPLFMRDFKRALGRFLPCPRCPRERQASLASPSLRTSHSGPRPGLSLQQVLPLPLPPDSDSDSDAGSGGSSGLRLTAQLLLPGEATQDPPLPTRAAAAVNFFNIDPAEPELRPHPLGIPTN
Chain of serotoninergic 5-HT2A receptor (P28223 whole entry): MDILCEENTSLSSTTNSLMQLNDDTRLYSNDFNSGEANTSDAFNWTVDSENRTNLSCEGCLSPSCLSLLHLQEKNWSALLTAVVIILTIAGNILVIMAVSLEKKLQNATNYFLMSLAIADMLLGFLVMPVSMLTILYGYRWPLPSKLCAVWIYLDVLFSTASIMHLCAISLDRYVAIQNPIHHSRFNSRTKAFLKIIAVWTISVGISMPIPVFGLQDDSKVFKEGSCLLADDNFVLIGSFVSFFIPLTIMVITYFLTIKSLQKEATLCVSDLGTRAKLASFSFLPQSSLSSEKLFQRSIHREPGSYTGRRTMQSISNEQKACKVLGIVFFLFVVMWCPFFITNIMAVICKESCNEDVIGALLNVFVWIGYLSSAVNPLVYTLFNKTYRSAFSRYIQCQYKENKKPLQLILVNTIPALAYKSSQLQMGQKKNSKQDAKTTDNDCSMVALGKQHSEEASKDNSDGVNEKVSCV

Turning to `Cc1cccc(S(=O)(=O)NCCN2CCC(c3noc4cc(F)ccc34)CC2)c1` [Compound 25, N-[2-[4-(6-Fluoro-1,2-benzoxazol-3-yl)piperidin-1-yl]ethyl]-3-methylbenzenesulphonamide], the inhibition at 1 µM in [1] was 92%; in assay [2], 94%; in assay [3], 98%; in assay [4], 20%; in assay [6], 71%; in assay [7], 100%. Further, the inhibition at 1 µM in assay [8] is 6%; in [10], 96%; in [11] (read-out: 5-HT6-antag. [%]) it was 6%; in [12], 98%; in assay [13], 62%; in [14] (read-out: 5-HT7-antag. [%]) it was 97%. For the same compound, the inhibition at 1 µM in assay [15] turned out to be 32%. In [5], the “α1 [%]” value was 98%. Moreover, the “σ [%]” value in assay [9] stood at 76%. The activation at 1 µM in [11] (agonist effect, percent of control specific agonist response, compounds tested at 1×10^−6M, read-out: 5-HT6-ag [%]) was 0%; in assay [14] (agonist effect, percent of control specific agonist response, compounds tested at 1×10^−6M, read-out: 5-HT7-ag [%]), -1%.
In the case of `O=S(=O)(NCCCN1CCN(c2nsc3ccccc23)CC1)c1ccc2c(c1)OCO2` [Compound 269, N-[3-[4-(1,2-Benzothiazol-3-yl)piperazin-1-yl]propyl]-1,3-benzodioxole-5-sulphonamide], the inhibition at 1 µM in assay [1] is 99%; in assay [2], 100%; in [3], 101%; in [4], 96%; in assay [6], 98%; in assay [7], 101%. Besides, the inhibition at 1 µM in [8] was found to be 20%; in assay [10], 99%; in [12], 101%; in assay [13], 92%; in assay [15] it was 92%. Further, the “α1 [%]” value in assay [5] was determined as 97%. Moreover, the “σ [%]” value in assay [9] came to 49%.
`O=S(=O)(NCCCN1CCC(c2noc3cc(F)ccc23)CC1)c1cc2cccnc2[nH]1` [Compound 357, N-[3-[4-(6-Fluoro-1,2-benzoxazol-3-yl)piperidin-1-yl]propyl]-1H-pyrrolo[2,3-b]pyridine-2-sulphonamide]: the inhibition at 1 µM was found to be 63% in [1]; 94% in [2]; 99% in assay [3]; 41% in [4]; 94% in assay [6]; 101% in assay [7]. Also, the inhibition at 1 µM amounted to 25% in assay [8]; 99% in assay [10]; 94% in assay [12]; 84% in assay [13]; 83% in assay [15]. Also, the “α1 [%]” value in [5] is 99%. For the same compound, the “σ [%]” value in assay [9] is 64%.
For `O=S(=O)(NCCCN1CCN(c2nsc3ccccc23)CC1)c1cccc(C(F)(F)F)c1` [Compound 258, N-[3-[4-(1,2-Benzothiazol-3-yl)piperazin-1-yl]propyl]-3-(trifluoromethyl)benzenesulphonamide], the inhibition at 1 µM was found to be 100% in [1]; 97% in assay [2]; 100% in [3]; 80% in assay [4]; 98% in assay [6]; 101% in [7]. Further, the inhibition at 1 µM in [8] was determined as 15%; in assay [10], 95%; in assay [12], 98%; in [13] it was 97%; in [15], 86%. Further, the “α1 [%]” value in assay [5] turned out to be 97%. In [9], the “σ [%]” value is 61%.
With `O=S(=O)(NCCCCN1CCN(c2nsc3ccccc23)CC1)c1ccc(F)c(Cl)c1` [Compound 63, N-[4-[4-(1,2-Benzothiazol-3-yl)piperazin-1-yl]butyl]-3-chloro-4-fluorobenzenesulphonamide], the inhibition at 1 µM in [1] worked out at 97%; in assay [2] it was 103%; in [3], 99%; in [4], 53%; in [6], 89%; in assay [7], 100%. The inhibition at 1 µM in assay [8] is 11%; in assay [10], 99%; in assay [12] it was 98%; in [13] it was 99%; in assay [15] it was 95%. Also, the “α1 [%]” value in assay [5] is 99%. Also, the “σ [%]” value in [9] amounted to 54%.
In the case of `O=S(=O)(NCCCCN1CCC(c2noc3cc(F)ccc23)CC1)c1ccc2c(c1)OCO2` [Compound 320, N-[4-[4-(6-Fluoro-1,2-benzoxazol-3-yl)piperidin-1-yl]butyl]-1,3-benzodioxole-5-sulphonamide], the inhibition at 1 µM in assay [1] came to 69%; in [2] it was 99%; in assay [3], 99%; in [4] it was 13%; in assay [6], 82%; in assay [7], 101%. The inhibition at 1 µM in [8] was found to be 24%; in [10], 100%; in [12] it was 101%; in [13], 84%; in [15] it was 46%. The “α1 [%]” value in assay [5] came to 98%. Further, in [9], the “σ [%]” value amounted to 80%.

Source of the values: patent US8822517B2, “Arylosulfonamides for the treatment of CNS diseases” (Adamed SP. Z O.O., priority 2010, dated 2014).
